According to ChEMBL document CHEMBL4765281, “Development of a novel nitric oxide (NO) production inhibitor with potential therapeutic effect on chronic inflammation” (Eur J Med Chem, 2020):

Key:
RAW264.7 [1] = assay: Inhibition of LPS-induced nitric oxide production in mouse RAW264.7 cells; assay type: functional, cell-based
RAW264.7 [2] = assay: Inhibition of LPS-induced nitric oxide production in mouse RAW264.7 cells at 10 uM measured after 24 hrs by Griess reagent based assay relative to control; assay type: functional
RAW264.7 [3] = assay: Inhibition of LPS-induced nitric oxide production in mouse RAW264.7 cells measured after 24 hrs by Griess reagent based assay; assay type: functional, cell-based; settings: RAW264.7, 24 h
RAW264.7 [4] = assay: Cytotoxicity against mouse RAW264.7 cells assessed as reduction in cell viability measured after 24 hrs by MTT assay; assay type: cell-based; settings: RAW264.7, 24 h

Structure (SMILES)	inhibition at 10 µM (RAW264.7 [2])	other results
COc1cccc(O)c1C(=O)/C=C/c1cccc(Br)c1		IC50 (RAW264.7 [1]): 7.8 µM
COc1cc(O)c(C(=O)/C=C/c2ccc3c(c2)OCO3)c(OC)c1	70%	
COc1cc(O)c(C(=O)/C=C/c2ccc(OC)c(O)c2)c(OC)c1	70.6%	
COc1cc(O)c(C(=O)/C=C/c2ccc(OC)c(Br)c2)c(OC)c1	73.8%	
COc1cc(O)c(C(=O)/C(F)=C/c2ccc(C)cc2)c(OC)c1	50.8%	
COc1cc(O)c(C(=O)/C=C/c2ccc(OC)c(OC)c2)c(OC)c1	78.7%	
COc1cccc(C2CC(=O)c3c(OC)cc(OC)cc3O2)c1 (configuration not stated)	57.3%	
COc1cc(O)c(C(=O)/C=C/c2ccc(O)cc2)c(OC)c1 [FLAVOKAWAIN C]	66.8%	
COc1cc(O)c(C(=O)/C(F)=C/c2ccc(OC)c(OC)c2)c(OC)c1	62.6%	
COc1cc(O)c(C(=O)/C=C/c2ccc(OCCCN3CCN(C)CC3)c(OC)c2)c(OC)c1	70.4%	
COc1cc(O)c(C(=O)/C=C/c2cc(OC)c(OC)cc2OC)c(OC)c1	78.4%	
COc1ccc(/C=C/C(=O)c2c(O)cc(OC)cc2OC)cc1 [FLAVOKAWAIN A]	79.5%	
COc1cc(C(=O)/C=C/c2cc(OC)c(OC)c(OC)c2)ccc1O		IC50 (RAW264.7 [1]): 4.19 µM
COc1cccc(/C=C/C(=O)c2c(O)cc(OC)cc2OC)c1	86.9%	IC50 (RAW264.7 [3]): 2.4 µM; IC50 (RAW264.7 [4]): 34 µM
COc1cc(O)c(C(=O)/C=C/c2ccc(Br)cc2)c(OC)c1	70.2%	
COc1cc(O)c(C(=O)/C=C/c2cccnc2)c(OC)c1	78%	
COc1cccc(/C=C/C(=N\O)c2c(O)cc(OC)cc2OC)c1	46.4%	
COc1cccc(O)c1C(=O)/C=C/c1ccccc1		IC50 (RAW264.7 [1]): 9.6 µM
COc1cc(O)c(C(=O)/C=C/c2ccc(OCCO)cc2)c(OC)c1	73.6%	
COc1cccc(/C=C(\C)C(=O)c2c(O)cc(OC)cc2OC)c1	68.3%	
COc1ccc(/C=C(\C)C(=O)c2c(O)cc(OC)cc2OC)cc1	41.6%	
COc1cc(O)c(C(=O)/C(F)=C/c2ccccc2)c(OC)c1	47.4%	
CC1(C)C=Cc2cc(/C=C/C(=O)c3ccc(O)cc3O)ccc2O1		IC50 (RAW264.7 [1]): 2.2 µM
COc1cc(O)c(C(=O)/C(C)=C/c2ccc(C)cc2)c(OC)c1	56.8%	
COc1cc(O)c(C(=O)/C=C/c2ccc([N+](=O)[O-])cc2)c(OC)c1	35.4%	
COc1ccc(/C=C(\F)C(=O)c2c(O)cc(OC)cc2OC)cc1	50.3%	
COc1cccc(CCC(=O)c2c(O)cc(OC)cc2OC)c1	52.2%	
COc1cccc(/C=C/C(=O)c2ccc(OC)cc2O)c1	82.5%	IC50 (RAW264.7 [3]): 3.2 µM; IC50 (RAW264.7 [4]): 29.7 µM
